{
  "source": "paper PMC2691174",
  "about": "(Cancer, 2009)",
  "key": {"[1]": {"settings": "for tmax Mean(Range): stratum A (no EIAEDs, N=14), imatinib 400 mg/day"}, "[2]": {"assay": "Plasma pharmacokinetics of hydroxyurea", "settings": "for AUC0−12 / 0−12 Mean(Range) / Cl/F Mean(Range) / Cmax/D Mean(Range) / t1/2 Mean(Range) / tmax Mean(Range): hydroxyurea 500 mg twice-a-day"}, "recurrent GBM patients": {"test_system": "recurrent GBM patients", "settings": "single agent; cited from earlier work"}, "[3]": {"test_system": "patients with newly diagnosed glioblastoma (GBM)", "settings": "radiotherapy plus temozolomide; cited from earlier work"}, "[4]": {"test_system": "recurrent malignant glioma patients", "assay": "Phase I dose escalation: MTD, DLT and toxicity", "settings": "all patients, with imatinib and hydroxyurea"}, "[5]": {"assay": "Plasma pharmacokinetics of vatalanib", "format": "in vivo, human", "settings": "for Tmax: human, plasma, oral, tmax Mean(Range)"}, "PDGFRβ": {"test_system": "PDGFRβ", "settings": "cited from earlier work"}, "[6]": {"settings": "stratum A (no EIAEDs, N=14), day 8 of cycle 1"}, "[7]": {"settings": "stratum A (no EIAEDs, N=14), day 35 of cycle 1"}, "[8]": {"settings": "stratum B (on EIAEDs, N=6), day 8 of cycle 1"}, "[9]": {"settings": "stratum B (on EIAEDs, N=6), day 35 of cycle 1"}, "[10]": {"settings": "stratum B (on EIAEDs, N=8), day 7 (vatalanib alone, steady state)"}, "[11]": {"settings": "stratum B (on EIAEDs, N=8), day 35 (with imatinib and hydroxyurea)"}, "[12]": {"settings": "stratum A (no EIAEDs, N=15), day 7 (vatalanib alone, steady state)"}, "[13]": {"settings": "stratum A (no EIAEDs, N=15), day 35 (with imatinib and hydroxyurea)"}},
  "note": "Read-outs that look alike come from different tables or passages of the source.",
  "data": [
    {"smiles": "Cc1ccc(NC(=O)c2ccc(CN3CCNCC3)cc2)cc1Nc1nccc(-c2cccnc2)n1", "note": "[CGP74588]", "values": [
      {"measurement": "tmax Mean(Range)", "setting": "[1]; day 8 of cycle 1", "result": "3.43(2.00−6.00) h"},
      {"measurement": "tmax Mean(Range)", "setting": "[1]; day 35 of cycle 1", "result": "3.57(1.00−8.00) h"}
    ]},
    {"smiles": "NC(=O)NO", "note": "[Hydroxyurea]", "values": [
      {"measurement": "effect of EIAEDs or time on hydroxyurea pharmacokinetics", "setting": "[2]; in vivo", "result": "no relevant effect"},
      {"measurement": "AUC0−12 / 0−12 Mean(Range)", "setting": "[2]; [6]", "result": "50.4(9.50−91.1) ng/mL*h/mg"},
      {"measurement": "Cl/F Mean(Range)", "setting": "[2]; [6]", "result": "15.2(5.50−52.5) L/h"},
      {"measurement": "Cmax/D Mean(Range)", "setting": "[2]; [6]", "result": "18.5(6.80−29.6) ng/mL/mg"},
      {"measurement": "t1/2 Mean(Range)", "setting": "[2]; [6]", "result": "4.84(1.60−12.5) h"},
      {"measurement": "tmax Mean(Range)", "setting": "[2]; [6]", "result": "1.29(0.50−2.00) h"},
      {"measurement": "AUC0−12 / 0−12 Mean(Range)", "setting": "[2]; [7]", "result": "41.7(13.0−84.5) ng/mL*h/mg"},
      {"measurement": "Cl/F Mean(Range)", "setting": "[2]; [7]", "result": "15.4(5.90−38.4) L/h"},
      {"measurement": "Cmax/D Mean(Range)", "setting": "[2]; [7]", "result": "19.4(5.60−32.6) ng/mL/mg"},
      {"measurement": "t1/2 Mean(Range)", "setting": "[2]; [7]", "result": "3.29(1.40−6.80) h"},
      {"measurement": "tmax Mean(Range)", "setting": "[2]; [7]", "result": "1.30(0.50−4.00) h"},
      {"measurement": "AUC0−12 / 0−12 Mean(Range)", "setting": "[2]; [8]", "result": "37.38(18.1−60.4) ng/mL*h/mg"},
      {"measurement": "Cl/F Mean(Range)", "setting": "[2]; [8]", "result": "16.4(8.3−27.6) L/h"},
      {"measurement": "Cmax/D Mean(Range)", "setting": "[2]; [8]", "result": "16.5(7.60−35.0) ng/mL/mg"},
      {"measurement": "t1/2 Mean(Range)", "setting": "[2]; [8]", "result": "3.5(2.70−5.40) h"},
      {"measurement": "tmax Mean(Range)", "setting": "[2]; [8]", "result": "1.80(0.50−4.00) h"},
      {"measurement": "AUC0−12 / 0−12 Mean(Range)", "setting": "[2]; [9]", "result": "41.4(17.0−70.1) ng/mL*h/mg"},
      {"measurement": "Cl/F Mean(Range)", "setting": "[2]; [9]", "result": "15.4(7.10−29.4) L/h"},
      {"measurement": "Cmax/D Mean(Range)", "setting": "[2]; [9]", "result": "19.0(7.80−31.4) ng/mL/mg"},
      {"measurement": "t1/2 Mean(Range)", "setting": "[2]; [9]", "result": "7.12(2.50−21.5) h"},
      {"measurement": "tmax Mean(Range)", "setting": "[2]; [9]", "result": "0.90(0.50−1.50) h"}
    ]},
    {"smiles": "Cc1ccc(NC(=O)c2ccc(CN3CCN(C)CC3)cc2)cc1Nc1nccc(-c2cccnc2)n1", "note": "[Imatinib]", "values": [
      {"measurement": "effect of hydroxyurea on imatinib pharmacokinetics", "setting": "[1]; fully apparent at day 35, more pronounced in patients taking EIAEDs", "result": "increase in Cmax/D and decreases in CL/F and V/F"}
    ]},
    {"smiles": "COc1cc2c(Oc3ccc4[nH]c(C)cc4c3F)ncnc2cc1OCCCN1CCCC1", "note": "[cedarinib]", "values": [
      {"measurement": "median PFS", "setting": "recurrent GBM patients", "result": 16, "unit": "weeks"},
      {"measurement": "radiographic response rate", "setting": "recurrent GBM patients", "result": 50, "unit": "%"}
    ]},
    {"smiles": "Cn1nnc2c(C(N)=O)ncn2c1=O", "note": "[temozolomide]", "values": [
      {"measurement": "median progression-free survival (PFS)", "setting": "[3]", "result": 6.9, "unit": "months"}
    ]},
    {"smiles": "Clc1ccc(Nc2nnc(Cc3ccncc3)c3ccccc23)cc1", "note": "[vatalanib]", "values": [
      {"measurement": "recommended vatalanib dose", "setting": "[4]; irrespective of EIAEDs", "result": 1000, "unit": "mg twice-a-day"},
      {"measurement": "MTD of vatalanib", "setting": "[4]; continuous daily schedule", "result": 1000, "unit": "mg twice-a-day"},
      {"measurement": "effect of vatalanib dose on vatalanib pharmacokinetic parameters", "setting": "[5]; 500 to 1250 mg twice daily", "result": "no significant effect"},
      {"measurement": "decrease of vatalanib Cmax/D by use of EIAEDs", "setting": "[5]; day 7", "result": "approximately 3 fold"},
      {"measurement": "effect of EIAEDs on vatalanib plasma t1/2", "setting": "[5]; day 7", "result": "not significantly affecting"},
      {"measurement": "increase of vatalanib CL/F by use of EIAEDs", "setting": "[5]; day 7", "result": "approximately 3 fold"},
      {"measurement": "increase of vatalanib V/F by use of EIAEDs", "setting": "[5]; day 7", "result": "more than 3 fold"},
      {"measurement": "Tmax", "setting": "[5]; [10]", "result": 1.79, "unit": "h"},
      {"measurement": "Tmax", "setting": "[5]; [11]", "result": 2.13, "unit": "h"},
      {"measurement": "AUC0−12 / 0−12 Mean(Range)", "setting": "[5]; [12]", "result": "11.1(2.23−16.1) ng/mL*h/mg"},
      {"measurement": "Cl/F Mean(Range)", "setting": "[5]; [12]", "result": "122(62.0−448) L/h"},
      {"measurement": "Cmax/D Mean(Range)", "setting": "[5]; [12]", "result": "3.12(0.72−5.03) ng/mL/mg"},
      {"measurement": "AUC0−12 / 0−12 Mean(Range)", "setting": "[5]; [13]", "result": "10.4(3.28−25.5) ng/mL*h/mg"},
      {"measurement": "Cl/F Mean(Range)", "setting": "[5]; [13]", "result": "137(39.3−305) L/h"},
      {"measurement": "Cmax/D Mean(Range)", "setting": "[5]; [13]", "result": "2.82(0.82−7.38) ng/mL/mg"},
      {"measurement": "AUC0−12 / 0−12 Mean(Range)", "setting": "[5]; [10]", "result": "4.51(1.31−12.1) ng/mL*h/mg"},
      {"measurement": "Cl/F Mean(Range)", "setting": "[5]; [10]", "result": "377(82.3−765) L/h"},
      {"measurement": "Cmax/D Mean(Range)", "setting": "[5]; [10]", "result": "1.15(0.40−2.46) ng/mL/mg"},
      {"measurement": "AUC0−12 / 0−12 Mean(Range)", "setting": "[5]; [11]", "result": "6.75(0.73−17.7) ng/mL*h/mg"},
      {"measurement": "Cl/F Mean(Range)", "setting": "[5]; [11]", "result": "368(56.5−1371) L/h"},
      {"measurement": "Cmax/D Mean(Range)", "setting": "[5]; [11]", "result": "1.91(0.16−6.52) ng/mL/mg"},
      {"measurement": "PDGFRβ IC50 relative to that of imatinib", "setting": "PDGFRβ", "result": "approximately twice"}
    ]}
  ]
}
